The conditions of data set [1]: single ingredient, doses of 15-24 grams/day; cited from earlier work.
The nature of data set [2]: Earlier antibiotic treatment of the Example 2 subjects. The note with it: 500 mg twice daily. The class given is in vivo, human. An excerpt:
This can be compared to the subjects' situation before the study.

The structures appear in SMILES notation. Where two headings read alike, the source gives them in different places.

As for `O=C[C@@H](O)[C@@H](O)[C@H](O)[C@H](O)CO` [D-mannose], the Side effects result in data set [1] is “bloating, gas and diarrhea”.
For `CC1=C(C(=O)O)N2C(=O)[C@@H](NC(=O)[C@H](N)c3ccccc3)[C@H]2SC1` [Cephalexin], the Side effects result in data set [2] (6-9 months) was “nausea, diarrhoea and yeast infections (oral and vaginal)”. Further, in data set [2] (after 6-9 months), the “Recurrence of UTI symptoms” value is recorded as “UTI symptoms had reoccurred after the course of antibiotics was completed”.

These data come from patent publication US11590188B2, “Composition for the treatment of urinary tract infections” (priority 2020, dated 2023).
